# US20210393574A1, “USE OF C[…] IN NEURO[…]” (HANYI BIO-TECHNOLOGY (BEIJING) CO., LTD., priority 2018, published 2021)
# Counter-ions that a name gives are not always drawn.
# What was measured:
# [1] = tested on: patients with diagnosed neurodermatitis; test: Clinical study of cannabinoid compound for neurodermatitis; assay type: in vivo, human; details: 2 weeks; for Cured (number of patients, efficacy index >90%) / effective (number of patients, efficacy index 20-60%) / excellently effective (number of patients, efficacy index 61-89%) / ineffective (number of patients, efficacy index <20%): orally once per day at bedtime, n=10; for clinical efficacy in neurodermatitis (in words): patients, orally once per day
# [2] = tested on: guinea pigs; test: Impact on the itch-causing effect of histamine phosphate (itch-causing threshold); assay type: in vivo; details: for alleviation of the itch-causing effect of histamine phosphate (in words): administration alone; for itch-causing threshold: oral, 3 consecutive days
# [3] = target: T1, 5-HT1A receptors (Mus musculus, UniProt Q64264); details: possibly through activation of 5-HT1A receptors; cited from earlier work
# T1 construct: host or cells: mice (in vivo)
# T1 sequence (Q64264 1-421): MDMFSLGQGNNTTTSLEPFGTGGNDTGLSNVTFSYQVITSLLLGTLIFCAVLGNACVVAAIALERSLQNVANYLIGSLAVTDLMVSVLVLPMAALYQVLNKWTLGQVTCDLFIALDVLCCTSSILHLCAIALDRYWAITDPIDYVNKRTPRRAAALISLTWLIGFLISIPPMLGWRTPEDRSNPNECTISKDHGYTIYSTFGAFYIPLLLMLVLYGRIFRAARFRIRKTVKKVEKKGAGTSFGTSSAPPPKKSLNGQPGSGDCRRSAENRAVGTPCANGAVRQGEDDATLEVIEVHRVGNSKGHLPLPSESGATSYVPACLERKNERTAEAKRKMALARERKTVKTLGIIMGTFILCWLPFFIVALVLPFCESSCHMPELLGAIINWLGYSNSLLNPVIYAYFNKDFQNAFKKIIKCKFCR
# [4] = 200 mg of cannabidiol (Embodiment 1)
# [5] = 25 mg/d of doxepin hydrochloride
# [6] = 100 mg of tetrahydrocannabinol (Embodiment 3)
compound,measurement,setting,value
C=C(C)[C@@H]1CCC(C)=C[C@H]1c1c(O)cc(CCCCC)cc1O [cannabidiol],"Cured (number of patients, efficacy index >90%)",[1]; [4],1
same,"effective (number of patients, efficacy index 20-60%)",[1]; [4],6
same,"excellently effective (number of patients, efficacy index 61-89%)",[1]; [4],3
same,"ineffective (number of patients, efficacy index <20%)",[1]; [4],0
same,clinical efficacy in neurodermatitis (in words),[1],have clinical efficacy in neurodermatitis
same,alleviation of the itch-causing effect of histamine phosphate (in words),[2],significantly alleviates
same,itch-causing threshold,[2]; 50 mg/day,90.24 ± 45.98 µL
same,itch-causing threshold,[2]; 200 mg/day,96.55 ± 42.34 µL
same,itch-causing threshold,[2]; 400 mg/day,117.67 ± 44.67 µL
same,antidepressant activity in mice (in words),[3],has antidepressant activity in mice
C=C(C)[C@@H]1CCC(C)=C[C@H]1c1c(O)cc(CCC)cc1O [cannabidivarin],itch-causing threshold,[2]; 40 mg/day,56.23 ± 45.87 µL
same,itch-causing threshold,[2]; 80 mg/day,59.55 ± 39.84 µL
same,itch-causing threshold,[2]; 100 mg/day,56.89 ± 34.25 µL
"CN(C)CCC(c1ccc(Cl)cc1)c1ccccn1 (stereo not drawn) [chlorphenamine maleate, reference compound]",itch-causing threshold,[2]; 10 mg/day,127.03 ± 54.05 µL
"CN(C)CCC=C1c2ccccc2COc2ccccc21 [doxepin hydrochloride, reference compound]","Cured (number of patients, efficacy index >90%)",[1]; [5],0
same,"effective (number of patients, efficacy index 20-60%)",[1]; [5],3
same,"excellently effective (number of patients, efficacy index 61-89%)",[1]; [5],6
same,"ineffective (number of patients, efficacy index <20%)",[1]; [5],1
CCCCCc1cc(O)c2c(c1)OC(C)(C)[C@@H]1CCC(C)=C[C@@H]21 [tetrahydrocannabinol],"Cured (number of patients, efficacy index >90%)",[1]; [6],1
same,"effective (number of patients, efficacy index 20-60%)",[1]; [6],6
same,"excellently effective (number of patients, efficacy index 61-89%)",[1]; [6],2
same,"ineffective (number of patients, efficacy index <20%)",[1]; [6],1
same,clinical efficacy in neurodermatitis (in words),[1],have clinical efficacy in neurodermatitis
same,alleviation of the itch-causing effect of histamine phosphate (in words),[2],significantly alleviates
same,itch-causing threshold,[2]; 40 mg/day,90.65 ± 32.08 µL
same,itch-causing threshold,[2]; 80 mg/day,92.10 ± 50.78 µL
same,itch-causing threshold,[2]; 100 mg/day,94.98 ± 48.96 µL
CCCc1cc(O)c2c(c1)OC(C)(C)[C@@H]1CCC(C)=C[C@@H]21 [tetrahydrocannabinovarin],itch-causing threshold,[2]; 5 mg/day,50.45 ± 45.67 µL
same,itch-causing threshold,[2]; 10 mg/day,56.43 ± 34.18 µL
same,itch-causing threshold,[2]; 20 mg/day,55.23 ± 40.92 µL
